The results in this text go back to patent publication US9522914B2, “Azole derivative” (TAISHO PHARMACEUTICAL CO., LTD, priority 2011, dated 2016).

Experiment [1] concerns the target T1, Human V1b receptor (Homo sapiens (Human), UniProt P47901). Briefly: Binding Test for V1b Receptor ([3H]AVP, crude membrane preparation of 293FT cells). The settings on record: inhibition of [3H]AVP binding (0.4 to 1 nmol/L), room temperature, 60 minutes. The method in brief: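 Crude membranes from 293FT cells transiently expressing human V1b, incubated with [3H]AVP (0.4 to 1 nmol/L) and compound (0.01 nmol/L–1 μmol/L final) in Tris pH 7.4 with MgCl2 and 0.1% BSA, 60 min at room temperature. Bound label collected by filtration. Nonspecific binding defined with unlabeled AVP; IC50 from dose-response curve.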

The target in experiment [2] is T1, Human V1b receptor. Briefly: Measurement of V1b Receptor Antagonistic Activity (AVP-induced Fluo-4 fluorescence in CHO cells, FDSS). The settings on record: inhibition of the response to AVP 2.5 nmol/L, CHO cells stably expressing human V1b receptor. The format is cell-based. The method, then:
Measurement of V1b Receptor Antagonistic Activity
CHO cells (ATCC) so modified as to express human V1b receptor in a stable manner were cultured in Ham's F-12 medium (containing 10% FBS and 0.5 mg/mL Geneticin). On the day before the test, seeding was conducted at a density of 20,000 cells/well in a 96-well poly-D-lysine coated black plate. On the day of the test, the culture medium was removed, and a loading solution (1×HBSS, 10 mmol/L HEPES, 0.1% bovine serum albumin, 1.25 mmol/L Probenecid, 0.02% Pluronic F-127, 1.5 μmol/L Fluo-4-AM, pH 7.4) was added to each well, followed by incubation in a CO2 incubator for an hour. After the incubation, the loading solution was removed. A test solution (1×HBSS, 10 mmol/L HEPES, 0.1% bovine serum albumin, 1.25 mmol/L Probenecid, pH 7.4) containing any one of test compounds was added to wells, followed by incubation in a CO2 incubator for 30 minutes. The test compound was serially diluted with DMSO so that it would have final concentrations of 0.1 nmol/L to […] at the time of assaying. After the incubation, fluorescence intensity levels were measured and AVP added by means of FDSS (Hamamatsu Photonics K.K.); AVP was added to give a final concentration of 2.5 nmol/L at the time of assaying. […] The fluorescence level in a well to which neither test compound nor AVP was added was defined as 0%, and the fluorescence level in a well to which only AVP was added and no test compound was added was defined as 100%. A dose-response curve was plotted from fluorescence levels after the addition of AVP in the presence of a test compound at various concentrations, and the 50% inhibitory concentration (IC50 value) of the compound was calculated.

T1 sequence (P47901 whole entry): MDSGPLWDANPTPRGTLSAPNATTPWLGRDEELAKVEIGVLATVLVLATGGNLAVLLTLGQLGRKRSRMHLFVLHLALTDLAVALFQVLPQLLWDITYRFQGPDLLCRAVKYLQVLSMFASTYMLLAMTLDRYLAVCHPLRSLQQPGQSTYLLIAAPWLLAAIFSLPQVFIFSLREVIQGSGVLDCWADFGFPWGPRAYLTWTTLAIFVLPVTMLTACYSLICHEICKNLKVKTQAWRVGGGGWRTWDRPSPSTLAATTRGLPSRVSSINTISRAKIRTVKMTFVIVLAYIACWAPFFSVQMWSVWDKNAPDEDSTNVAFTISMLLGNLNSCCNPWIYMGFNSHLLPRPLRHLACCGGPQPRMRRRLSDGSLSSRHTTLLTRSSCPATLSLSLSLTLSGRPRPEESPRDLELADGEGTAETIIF

For orientation: IC50 means the midpoint of a concentration-inhibition curve. A low value points to inhibition by little substance. Regarding `CC(C)NC(=O)Cc1nn(-c2ccc(CCN3CCOCC3)cc2)c(=O)n1-c1cccc(Cl)c1` [Example D-01, 2-[4-(3-chlorophenyl)-1-{4-[2-(morpholin-4-yl)ethyl]phenyl}-5-oxo-4,5-dihydro-1H-1,2,4-triazol-3-yl]-N-(propan-2-yl)acetamide], the IC50 in experiment [1] stood at 15 nM; in experiment [2], 21 nM.

Consider `CC(C)NC(=O)Cc1oc(-c2ccc(CCN3CC4(COC4)C3)cc2)nc1-c1cccc(Cl)c1` [Example C-12, 2-[4-(3-chlorophenyl)-2-{4-[2-(2-oxa-6-azaspiro[3.3]hept-6-yl)ethyl]phenyl}-1,3-oxazol-5-yl]-N-(propan-2-yl)acetamide], for which the 50% inhibitory concentration (IC50) in experiment [1] was found to be 4.3 nM; in experiment [2], 32 nM.

As to `CC(C)NC(=O)Cc1nn(-c2ccc(CC(C)N3C4CCC3COC4)cc2)c(=O)n1-c1cccc(Cl)c1` [Example D-18, 2-[4-(3-chlorophenyl)-1-{4-[2-(3-oxa-8-azabicyclo[3.2.1]oct-8-yl)propyl]phenyl}-5-oxo-4,5-dihydro-1H-1,2,4-triazol-3-yl]-N-(propan-2-yl)acetamide], the values for the IC50 in experiment [1] and in experiment [2] were 1.5 nM and 0.65 nM, respectively. Taken in the same sequence, the figures for `CC(C)(C)NC(=O)Cc1nn(-c2ccc(CCN3CCOCC3)cc2)c(=O)n1-c1cccc(Cl)c1` [Example D-13, N-tert-butyl-2-[4-(3-chlorophenyl)-1-{4-[2-(morpholin-4-yl)ethyl]phenyl}-5-oxo-4,5-dihydro-1H-1,2,4-triazol-3-yl]acetamide] were 3.5 nM and 13 nM. Take `CC(C)(C)NC(=O)Cc1nn(-c2ccc(CCN3C4CCC3COC4)cc2)c(=O)n1-c1cccc(Cl)c1` [Example D-14, N-tert-butyl-2-[4-(3-chlorophenyl)-1-{4-[2-(3-oxa-8-azabicyclo[3.2.1]oct-8-yl)ethyl]phenyl}-5-oxo-4,5-dihydro-1H-1,2,4-triazol-3-yl]acetamide]: the IC50 in experiment [1] amounted to 4.7 nM; in experiment [2], 12 nM. `CC(C)NC(=O)Cn1c(-c2cccc(Cl)c2)cn(-c2ccc(CCN3CCOCC3)cc2)c1=O` [Example C-19, 2-[5-(3-chlorophenyl)-3-{4-[2-(morpholin-4-yl)ethyl]phenyl}-2-oxo-2,3-dihydro-1H-imidazol-1-yl]-N-(propan-2-yl)acetamide]: in experiment [1], the IC50 came to 2.2 nM.

Consider `CC(C)NC(=O)Cc1nn(-c2ccc(CCN3CCC(F)CC3)cc2)c(=O)n1-c1cccc(Cl)c1` [Example D-57, 2-[4-(3-chlorophenyl)-1-{4-[2-(4-fluoropiperidin-1-yl)ethyl]phenyl}-5-oxo-4,5-dihydro-1H-1,2,4-triazol-3-yl]-N-(propan-2-yl)acetamide], for which the IC50 in experiment [1] was 10 to 100 nM.

In experiment [1], `CC(C)NC(=O)Cc1nc(-c2ccc(CCN3CC4(COC4)C3)cc2)sc1-c1cccc(Cl)c1` [Example C-15, 2-[5-(3-chlorophenyl)-2-{4-[2-(2-oxa-6-azaspiro[3.3]hept-6-yl)ethyl]phenyl}-1,3-thiazol-4-yl]-N-(propan-2-yl)acetamide] had an IC50 of 22 nM. That is a double-digit nanomolar value. Turning to `CC(C)NC(=O)Cc1nc(-c2cccc(CCN3CCCCC3)c2)sc1-c1cccc(Cl)c1` [Example C-16, 2-[5-(3-chlorophenyl)-2-{3-[2-(piperidin-1-yl)ethyl]phenyl}-1,3-thiazol-4-yl]-N-(propan-2-yl)acetamide], the IC50 in experiment [1] was in the range of 100 to 1000 nM. On the same count and under the same terms, to `CC(C)NC(=O)Cn1nc(-c2ccc(CCN3CCCCC3)cc2)cc1-c1cccc(Cl)c1` [Example C-06, 2-[5-(3-chlorophenyl)-3-{4-[2-(piperidin-1-yl)ethyl]phenyl}-1H-pyrazol-1-yl]-N-(propan-2-yl)acetamide] belongs 17 nM; to `CC(C)NC(=O)Cn1nc(-c2ccc(CCN3CCOCC3)cn2)nc1-c1ccc(F)c(Cl)c1` [Example B-12, 2-[5-(3-chloro-4-fluorophenyl)-3-{5-[2-(morpholin-4-yl)ethyl]pyridin-2-yl}-1H-1,2,4-triazol-1-yl]-N-(propan-2-yl)acetamide], 6.3 nM; to `CC(C)NC(=O)Cc1nc(-c2ccc(CCN3CCOCC3)cc2)sc1-c1cccc(Cl)c1` [Example C-14, 2-[5-(3-chlorophenyl)-2-{4-[2-(morpholin-4-yl)ethyl]phenyl}-1,3-thiazol-4-yl]-N-(propan-2-yl)acetamide], 14 nM.

`COc1cc(-n2nc(CC(=O)NC(C)C)n(-c3cccc(Cl)c3)c2=O)ccc1CCN1CCOCC1` [Example D-22, 2-[4-(3-chlorophenyl)-1-{3-methoxy-4-[2-(morpholin-4-yl)ethyl]phenyl}-5-oxo-4,5-dihydro-1H-1,2,4-triazol-3-yl]-N-(propan-2-yl)acetamide] displayed an IC50 in experiment [1] of 12 nM. This IC50 and that of the molecule before are within 1.5-fold of each other. In experiment [1], `COc1cc(-c2nc(-c3ccc(CCN4C(C)COCC4C)cc3)cn2CC(=O)NC(C)C)ccc1F` (stereo not drawn) [Example A-25, 2-[4-{4-[2-(3,5-dimethylmorpholin-4-yl)ethyl]phenyl}-2-(4-fluoro-3-methoxyphenyl)-1H-imidazol-1-yl]-N-(propan-2-yl)acetamide] gave a concentration for half-maximal inhibition (IC50) of 14 nM. For `COc1cc(-n2c(CC(=O)NC(C)C)nn(-c3ccc(CCN4C5CCC4COC5)cc3)c2=O)ccc1F` [Example D-37, 2-[4-(4-fluoro-3-methoxyphenyl)-1-{4-[2-(3-oxa-8-azabicyclo[3.2.1]oct-8-yl)ethyl]phenyl}-5-oxo-4,5-dihydro-1H-1,2,4-triazol-3-yl]-N-(propan-2-yl)acetamide], the IC50 in experiment [1] is 12 nM. This IC50 and that of the molecule before are within 1.5-fold of each other. On the same count and under the same terms, as for `COc1cccc(-c2nc(-c3ccc(CCN4CC5(CCOCC5)C4)cc3)nn2CC(=O)NC(C)C)c1` [Example B-37, 2-[5-(3-methoxyphenyl)-3-{4-[2-(7-oxa-2-azaspiro[3.5]non-2-yl)ethyl]phenyl}-1H-1,2,4-triazol-1-yl]-N-(propan-2-yl)acetamide], the figure is < 10 nM; as for `COc1cc(-c2nc(-c3ccc(CCN4CCCOCC4)cc3)cn2CC(=O)NC(C)C)ccc1F` [Example A-23, 2-[2-(4-fluoro-3-methoxyphenyl)-4-{4-[2-(1,4-oxazepan-4-yl)ethyl]phenyl}-1H-imidazol-1-yl]-N-(propan-2-yl)acetamide], 11 nM.

`COc1cccc(-c2nc(-c3ccc(CCN4CC=CCC4)cc3)nn2CC(=O)NC(C)C)c1` [Example B-22, 2-[3-{4-[2-(3,6-dihydropyridin-1(2H)-yl)ethyl]phenyl}-5-(3-methoxyphenyl)-1H-1,2,4-triazol-1-yl]-N-(propan-2-yl)acetamide]: the IC50 in experiment [1] was 10 to 100 nM. The same measure, in the same setting: to `COc1cc(-c2nc(-c3ccc(CCN4CCC(C)C4)cc3)cn2CC(=O)NC(C)C)ccc1F` (stereo not drawn) [Example A-21, 2-[2-(4-fluoro-3-methoxyphenyl)-4-{4-[2-(3-methylpyrrolidin-1-yl)ethyl]phenyl}-1H-imidazol-1-yl]-N-(propan-2-yl)acetamide] belongs 3.2 nM; to `CC(C)NC(=O)Cn1nc(-c2ccc(CCN3C4CCC3COC4)cn2)nc1-c1cccc(Cl)c1` [Example B-04, 2-[5-(3-chlorophenyl)-3-{5-[2-(3-oxa-8-azabicyclo[3.2.1]oct-8-yl)ethyl]pyridin-2-yl}-1H-1,2,4-triazol-1-yl]-N-(propan-2-yl)acetamide], 7.4 nM; to `COc1cccc(-c2nc(-c3ccc(CCN4CCCCC4)cc3)cn2CC(=O)NC(C)C)c1` [Example A-37, 2-[2-(3-methoxyphenyl)-4-{4-[2-(piperidin-1-yl)ethyl]phenyl}-1H-imidazol-1-yl]-N-(propan-2-yl)acetamide], 10 to 100 nM. With `CC(C)NC(=O)Cc1nn(-c2ccc(CCN3CCOCC3)cc2)c(=O)n1-c1cccc(C(F)(F)F)c1` [Example D-35, 2-(1-{4-[2-(morpholin-4-yl)ethyl]phenyl}-5-oxo-4-[3-(trifluoromethyl)phenyl]-4,5-dihydro-1H-1,2,4-triazol-3-yl)-N-(propan-2-yl)acetamide], the IC50 in experiment [1] came to 18 nM. With `COc1cc(-c2nc(-c3ccc(CCN4CCCC(OC)C4)cc3)cn2CC(=O)NC(C)C)ccc1F` (stereo not drawn) [Example A-18, 2-[2-(4-fluoro-3-methoxyphenyl)-4-{4-[2-(3-methoxypiperidin-1-yl)ethyl]phenyl}-1H-imidazol-1-yl]-N-(propan-2-yl)acetamide], the IC50 in experiment [1] worked out at 19 nM. The IC50 values of the last two molecules are within 1.5-fold of each other.

`CC(C)NC(=O)Cn1cc(N2CCN(CCN3CCOCC3)CC2=O)nc1-c1cccc(Cl)c1` [Example A-46, 2-[2-(3-chlorophenyl)-4-{4-[2-(morpholin-4-yl)ethyl]-2-oxopiperazin-1-yl}-1H-imidazol-1-yl]-N-(propan-2-yl)acetamide]: the IC50 in experiment [1] lay within 100 to 1000 nM. `CC(C)NC(=O)Cc1nn(-c2ccc(CC(C)N3CCOCC3)cc2)c(=O)n1-c1cccc(Cl)c1` [Example D-17, 2-[4-(3-chlorophenyl)-1-{4-[2-(morpholin-4-yl)propyl]phenyl}-5-oxo-4,5-dihydro-1H-1,2,4-triazol-3-yl]-N-(propan-2-yl)acetamide] had an IC50 in experiment [1] of 3.9 nM.
